Measurements taken from patent publication US20040258754A1, “Compositions for oral administration of camptothecin and its analogs” (priority 2003, published 2004).
≈ marks a conversion by molar mass, not a printed value. Where two headings read alike, the source gives them in different places.

Key:
[1] = Partitioning of topotecan into Pluronic F127 micelles (fluorescence); assay type: physicochemical; conditions: Pluronic F127 micelles vs aqueous phase, carrier 0.003% to 10%, topotecan 0.010 mM, 2 hrs at 37° C.
Excerpt: Partitioning coefficient P describes the tendency of molecules of topotecan to stay inside micelles formed by the carrier: P=[x]m/[x]w, where [x]m is the actual concentration of topotecan inside micelles, [x]w is the actual concentration of topotecan in aqueous phase. The carrier investigated in this example is pluronic F127 (BASF). Partitioning coefficient was estimated using the fluorescence dependence on the concentration of the carrier (Kabanov A. et al. (1995), Macromolecules 28, 2303-2314), by fitting the measured fluorescence of topotecan to the equation:
(Imax−I0)/(−I0)−1=1/(θP)−1/P
θ=0.01v([carrier]−CMCcarrier), volume portion of the micellar phase
CMCcarrier=0.02%—critical micelle concentration for Pluronic 127
v—partial specific volume of micelles, approximately v=0.8
[…]. The plate was dried in vacuum. Solutions of the carrier were applied to wells, 300 microliter to each well. The concentration of carrier in solutions varied from 0.003% to 10%. The final concentration of topotecan was 0.010 mM. The plate was incubated 2 hrs at 37° C., and the fluorescence of the solution (excitation 360 nm, emission 530 nm) was measured using plate reader FL600 (BioTek).

[2] = Solubility of topotecan in formulations with Pluronic P85; assay type: physicochemical; conditions: thermodynamic from solid, read-out: Topotecan concentration (solubility)
Procedure: Calibration. Fluorescence of 0.300 mL samples of topotecan solutions in methanol containing between 0.00006 and 0.001 mg/mL, in triplicates on Helma Quarz plate, was measured using Bio-Tek FL600 fluorescence plate reader with excitation filter wavelength/bandwidth 360/40 nm and emission filter 530/25 nm, sensitivity 70. The average fluorescence was fitted to a linear equation and gave:
where C=topotecan concentration [mg/mL].
Solubility. 1 mg topotecan samples, in triplicates, and 1 mL of the respective buffer or carrier solution, were incubated at room temperature with shaking for 1 hour. The samples were then filtered through Acrodisc CR, PTFE Syringe filter, 4 mm diameter, 0.45 μm pore size Gelman part No. 4472. The filtrate was diluted 100 times with methanol, and the final concentration of topotecan was determined by fluorescence measurement using the above-described calibration.

[3] = Stability of topotecan lactone in Pluronic P85 formulation (HPLC); assay type: physicochemical; conditions: 37° C., 0.3 mg/mL drug in PBS
Procedure: The formulation was prepared by mixing the stock solution containing 6 mg/mL of topotecan in 0.1% aqueous acetic acid with the 2.05% P85 solutions in PBS 1:20 (v/v), to obtain final compositions containing 0.3 mg/mL drug in 1% P85. The control formulation was prepared by simple dilution of topotecan stock solution with PBS 1:20 (v/v). The initial time of incubation (O hour) is the time of mixing of the respective stock solutions. The samples were incubated at 37° C. in thermostat. After various time intervals (1, 2, 3, 6, and 10 hrs) […], a sample of formulation was taken, diluted 1000 times with the HPLC mobile phase, and injected into HPLC. The HPLC conditions were following:
(§1) C18 reversed phase column 250×4.6 mm, Phenomenex C18 (2) Luna, 5 μm, column temperature 40° C., flow rate 1 mL/min, injection volume 20 μL, fluorescence detection at wavelengths λexcitation=381 nm, λemission=525 nm, mobile phase 94% of 2% triethylamine acetate pH 5.5/6% acetonitrile, run time 7 min

[4] = Plasma pharmacokinetics of topotecan upon i.v. administration; assay type: in vivo; conditions: normal rats, dose of 15 mg/mL
Procedure: About 28 mg of topotecan were weighed and dissolved in 7 mL of isotonic solution. Topotecan was i.v. administered in normal rats at a dose of […].
(§2) After various time intervals (15, 30 min, 1, 3, 6, and 10 hrs) post-injection, the blood samples were collected.
The blood samples were collected from the jugular vein with the tube heparinized and kept immediately in ice for 5 to 10 min. Blood was immediately centrifuged, and plasma was separated. The plasma samples were immediately frozen in dry ice and stored at −80° C. until further use.
The aliquots (100 μL) of plasma samples were extracted with 400 μL of cold methanol. The supernatant was separated by centrifugation at 10000 RPM for 10 minutes and kept at −80° C. before HPLC analysis. The HPLC conditions were the following:
as §1
The topotecan lactone and topotecan carboxilate concentrations were calculated from the area under the peak (AUP) by using a calibration curve. The areas under the curves (AUC) were calculated by trapezoidal rule.

[5] = Oral bioavailability of Pluronic P85 formulated and unformulated topotecan (gavage); assay type: in vivo; conditions: normal rats, oral gavage of solution, 15 mg/kg, plasma
Procedure: About 15 mg of topotecan were weighed and dissolved in 5 mL of tap water for control, and about 15 mg of topotecan were dissolved in 5 mL of 1% P85 solution in tap water for formulation;
Both topotecan dosing solutions were orally administered by gavage in normal rats at a dose of 15 mg/kg. Three animals were used per each group.
as §2
The rats were anesthetized by general inhalation of Isoflurane (Bimeta-MTC, Animal Health Inc. Cambridge, ON, Canada).
The plasma sample collection, extraction and HPLC analysis were carried out with the same matter as is described in example 8.
The topotecan lactone and topotecan carboxylate concentrations were calculated from the area under the peak (AUP) by using a calibration curve. The areas under the curves (AUC) were calculated by trapezoidal rule.

[6] = Oral administration of topotecan in capsules (control, microgel, microgel + L92); assay type: in vivo, rats
Procedure: (§3) About 30 mg of topotecan were weighed and mixed with 100 mg of the microgel. The mixture was dissolved in 5 mL of 70% ethanol and incubated for 16 hours at room temperature. Then, the half volume of solvent was evaporated in a stream of nitrogen. About 10 mL of 3% acetic acid were added to the mixture. The final mixture was lyophilized until dryness and loaded into the gelatin capsules.
About 30 mg of topotecan were weighed and loaded in gelatin capsules (3.75 mg/capsule).
The control and formulated topotecan in capsules were orally administered in normal rats at the dose of 15 mg/kg. The blood sample collection, extraction and HPLC analysis were the same as described in example 8.
as §3, with “microgel EGDMA and 30 mg of L92.” for “the microgel.”, “capsules. The topotecan formulation in capsules was orally administered in normal rats at the dose of 15 mg/kg. The blood sample collection, the extraction and HPLC analysis procedures were the same as in example 8.” for “capsules.”

[7] = normal rats, oral gelatin capsules, 15 mg/kg, plasma

partitioning coefficient P=[x]m/[x]w [1]: about 1
solubility at 1 h ([2]; 1% Pluronic P85 in PBS, aqueous with cosolvent or surfactant or cyclodextrin, P85 1% in PBS pH 7.2, room temperature): 95 ± 5 µg/mL (≈ 225 µM)
solubility at 1 h ([2]; 3% Pluronic P85 in PBS, aqueous with cosolvent or surfactant or cyclodextrin, P85 3% in PBS pH 7.2, room temperature): 105 ± 5 µg/mL (≈ 249 µM)
solubility at 1 h ([2]; aqueous buffer, PBS pH 7.2, room temperature): 62 ± 5 µg/mL (≈ 147 µM)
topotecan lactone stability ([3]; 0 hour): 100.0 % of 0 h
topotecan lactone stability ([3]; 1 hour): 76.0 % of 0 h
topotecan lactone stability ([3]; 2 hours): 56.4 % of 0 h
topotecan lactone stability ([3]; 3 hours): 49.7 % of 0 h
topotecan lactone stability ([3]; 6 hours): 45.9 % of 0 h
topotecan lactone stability ([3]; 10 hours): 44.8 % of 0 h
Ratio AUC0-10 h Lac/Car [4]: 0.3
Ratio Cmax Lac/Car [4]: 0.4
AUC(0-t) ([4]; rat, iv, read-out: AUC0-10 h, topotecan Lactone): 454 ng·h/mL
Cmax ([4]; rat, iv, read-out: Cmax, topotecan Lactone): 321 ng/mL
Ratio AUC0-10 h Lac/Car [5]: 1.2
Ratio Cmax Lac/Car [5]: 1.2
AUC(0-t) ([5]; rat, read-out: AUC0-10 h, topotecan Lactone): 80.5 ng·h/mL
Cmax ([5]; rat, read-out: Cmax, topotecan Lactone): 20.3 ng/mL
AUC Ratio Oral Vs I.V. ([6]; Lac/Car AUC ratio, oral capsules 15 mg/kg vs i.v., rats): 2.0
Cmax Ratio Oral Vs I.V. ([6]; Lac/Car Cmax ratio, oral capsules 15 mg/kg vs i.v., rats): 2.0
Ratio AUC0-10 h Lac/Car [6, 7]: 0.6
Ratio Cmax Lac/Car [6, 7]: 0.8
AUC(0-t) ([6]; rat, normal rats, oral gelatin capsules, 15 mg/kg, plasma, read-out: AUC0-10 h, topotecan Lactone): 52.8 ng·h/mL
Cmax ([6]; rat, normal rats, oral gelatin capsules, 15 mg/kg, plasma, read-out: Cmax, topotecan Lactone): 9.8 ng/mL
SMILES: CC[C@@]1(O)C(=O)OCc2c1cc1n(c2=O)Cc2cc3c(CN(C)C)c(O)ccc3nc2-1 [Topotecan, topotecan]
